Measurements as given in the NIST ThermoML archive (doi:10.1016/j.jct.2004.11.013).
Numbers after ± are expanded uncertainties.

What was measured:
[1] = Liquid; for speed of sound / mass density: 303.15 K, 101.33 kPa; for speed of sound: Linear variable-path acoustic interferometer; for mass density: Pycnometric method
[2] = xn = mol fraction of the nth substance listed; details: 303.15 K, 101.33 kPa, Liquid, Direct dilatometry
[3] = φn = volume fraction of the nth substance listed; details: 303.15 K, 101.33 kPa, Liquid, Linear variable-path acoustic interferometer

## CC(Cl)(Cl)Cl [1,1,1-trichloroethane]
[1]
  speed of sound: 943.2 ± 3.3 m/s
  mass density: 1320.92 ± 2.3 kg/m3
  Normal boiling temperature: 74 ± 0.21 °C

## CC(Cl)(Cl)Cl [1,1,1-trichloroethane] + BrCCBr
[2]; x2 = 0.0902
  excess molar volume: -7.3e-08 ± 6e-09 m3/mol
[2]; x2 = 0.1941
  excess molar volume: -1.2e-07 ± 6e-09 m3/mol
[2]; x2 = 0.2744
  excess molar volume: -1.33e-07 ± 6e-09 m3/mol
[2]; x2 = 0.4169
  excess molar volume: -1.11e-07 ± 6e-09 m3/mol
[2]; x2 = 0.5239
  excess molar volume: -6.4e-08 ± 6e-09 m3/mol
[2]; x2 = 0.6304
  excess molar volume: -6e-09 ± 6e-09 m3/mol
[2]; x2 = 0.6818
  excess molar volume: 2.1e-08 ± 6e-09 m3/mol
[2]; x2 = 0.8709
  excess molar volume: 6.9e-08 ± 6e-09 m3/mol
[3]; φ2 = 0
  speed of sound: 943.2 ± 3.3 m/s
[3]; φ2 = 0.0787
  speed of sound: 942.1 ± 3.3 m/s
[3]; φ2 = 0.1718
  speed of sound: 942.1 ± 3.3 m/s
[3]; φ2 = 0.2457
  speed of sound: 944.6 ± 3.3 m/s
[3]; φ2 = 0.3811
  speed of sound: 950.4 ± 3.4 m/s
[3]; φ2 = 0.4866
  speed of sound: 958.1 ± 3.4 m/s
[3]; φ2 = 0.595
  speed of sound: 961 ± 3.3 m/s
[3]; φ2 = 0.6486
  speed of sound: 965.1 ± 3.4 m/s
[3]; φ2 = 0.8532
  speed of sound: 973.6 ± 3.4 m/s

## ClC(Cl)C(Cl)Cl [1,1,2,2-tetrachloroethane]
[1]
  speed of sound: 1133.1 ± 3.5 m/s
  mass density: 1578.57 ± 2.7 kg/m3
  Normal boiling temperature: 146.10 ± 0.21 °C

## ClC(Cl)C(Cl)Cl [1,1,2,2-tetrachloroethane] + BrCCBr
[3]; φ2 = 0
  speed of sound: 1133.1 ± 3.5 m/s

## BrCCBr [1,2-dibromoethane]
[1]
  speed of sound: 984 ± 3.2 m/s
  mass density: 2159.67 ± 3.5 kg/m3
  Normal boiling temperature: 131.50 ± 0.21 °C

## BrCCBr [1,2-dibromoethane] + CC(Cl)(Cl)Cl
[3]; φ1 = 1
  speed of sound: 984 ± 3.4 m/s

## BrCCBr [1,2-dibromoethane] + ClC(Cl)=C(Cl)Cl
[2]; x1 = 0.1133
  excess molar volume: 3e-07 ± 6e-09 m3/mol
[2]; x1 = 0.2647
  excess molar volume: 4.61e-07 ± 7e-09 m3/mol
[2]; x1 = 0.3594
  excess molar volume: 4.72e-07 ± 7e-09 m3/mol
[2]; x1 = 0.4806
  excess molar volume: 4.4e-07 ± 6e-09 m3/mol
[2]; x1 = 0.6289
  excess molar volume: 3.66e-07 ± 6e-09 m3/mol
[2]; x1 = 0.7163
  excess molar volume: 3.1e-07 ± 6e-09 m3/mol
[2]; x1 = 0.7934
  excess molar volume: 2.55e-07 ± 6e-09 m3/mol
[2]; x1 = 0.906
  excess molar volume: 1.43e-07 ± 6e-09 m3/mol
[3]; φ1 = 0.0955
  speed of sound: 1010.1 ± 3.5 m/s
[3]; φ1 = 0.2327
  speed of sound: 992.8 ± 3.4 m/s
[3]; φ1 = 0.321
  speed of sound: 985.8 ± 3.4 m/s
[3]; φ1 = 0.4381
  speed of sound: 980.4 ± 3.4 m/s
[3]; φ1 = 0.5881
  speed of sound: 975.3 ± 3.3 m/s
[3]; φ1 = 0.6802
  speed of sound: 975.1 ± 3.3 m/s
[3]; φ1 = 0.7639
  speed of sound: 973.7 ± 3.3 m/s
[3]; φ1 = 0.8904
  speed of sound: 978.1 ± 3.4 m/s
[3]; φ1 = 1
  speed of sound: 984 ± 3.4 m/s

## BrCCBr [1,2-dibromoethane] + ClC(Cl)C(Cl)Cl
[2]; x1 = 0.0885
  excess molar volume: -5.2e-08 ± 6e-09 m3/mol
[2]; x1 = 0.1554
  excess molar volume: -9e-08 ± 6e-09 m3/mol
[2]; x1 = 0.3032
  excess molar volume: -1.56e-07 ± 6e-09 m3/mol
[2]; x1 = 0.4447
  excess molar volume: -1.71e-07 ± 6e-09 m3/mol
[2]; x1 = 0.5365
  excess molar volume: -1.56e-07 ± 6e-09 m3/mol
[2]; x1 = 0.6757
  excess molar volume: -9.8e-08 ± 6e-09 m3/mol
[2]; x1 = 0.7546
  excess molar volume: -5.9e-08 ± 6e-09 m3/mol
[2]; x1 = 0.9124
  excess molar volume: -3e-09 ± 6e-09 m3/mol
[3]; φ1 = 0.0736
  speed of sound: 1123.4 ± 3.5 m/s
[3]; φ1 = 0.1308
  speed of sound: 1112.7 ± 3.5 m/s
[3]; φ1 = 0.2625
  speed of sound: 1092.9 ± 3.5 m/s
[3]; φ1 = 0.3958
  speed of sound: 1069.6 ± 3.5 m/s
[3]; φ1 = 0.4864
  speed of sound: 1054.5 ± 3.5 m/s
[3]; φ1 = 0.6302
  speed of sound: 1031.7 ± 3.5 m/s
[3]; φ1 = 0.7156
  speed of sound: 1019.7 ± 3.5 m/s
[3]; φ1 = 0.895
  speed of sound: 995 ± 3.4 m/s
[3]; φ1 = 1
  speed of sound: 984 ± 3.4 m/s

## BrCCBr [1,2-dibromoethane] + ClC=C(Cl)Cl
[3]; φ1 = 1
  speed of sound: 984 ± 3.4 m/s

## BrCCBr [1,2-dibromoethane] + ClCCCl
[2]; x1 = 0.0938
  excess molar volume: 1.7e-08 ± 6e-09 m3/mol
[2]; x1 = 0.1759
  excess molar volume: 3e-08 ± 6e-09 m3/mol
[2]; x1 = 0.2673
  excess molar volume: 4.2e-08 ± 6e-09 m3/mol
[2]; x1 = 0.3502
  excess molar volume: 4.7e-08 ± 6e-09 m3/mol
[2]; x1 = 0.4894
  excess molar volume: 5.2e-08 ± 6e-09 m3/mol
[2]; x1 = 0.5845
  excess molar volume: 5.1e-08 ± 6e-09 m3/mol
[2]; x1 = 0.7764
  excess molar volume: 3.5e-08 ± 6e-09 m3/mol
[2]; x1 = 0.8626
  excess molar volume: 2.5e-08 ± 6e-09 m3/mol
[3]; φ1 = 0.1012
  speed of sound: 1149.2 ± 3.6 m/s
[3]; φ1 = 0.1885
  speed of sound: 1125 ± 3.6 m/s
[3]; φ1 = 0.2842
  speed of sound: 1101.8 ± 3.6 m/s
[3]; φ1 = 0.3697
  speed of sound: 1079.6 ± 3.5 m/s
[3]; φ1 = 0.5106
  speed of sound: 1047.3 ± 3.5 m/s
[3]; φ1 = 0.6049
  speed of sound: 1029.8 ± 3.4 m/s
[3]; φ1 = 0.7908
  speed of sound: 1001.3 ± 3.3 m/s
[3]; φ1 = 0.8724
  speed of sound: 993 ± 3.3 m/s
[3]; φ1 = 1
  speed of sound: 984 ± 3.2 m/s

## ClCCCl [1,2-dichloroethane]
[1]
  speed of sound: 1173.3 ± 3.6 m/s
  mass density: 1238.28 ± 2.2 kg/m3
  Normal boiling temperature: 83.6 ± 0.21 °C

## ClCCCl [1,2-dichloroethane] + BrCCBr
[3]; φ2 = 0
  speed of sound: 1173.3 ± 3.6 m/s

## ClC(Cl)=C(Cl)Cl [tetrachloroethene]
[1]
  speed of sound: 1027.8 ± 3.5 m/s
  mass density: 1606.36 ± 2.7 kg/m3
  Normal boiling temperature: 121.30 ± 0.21 °C

## ClC(Cl)=C(Cl)Cl [tetrachloroethene] + BrCCBr
[3]; φ2 = 0
  speed of sound: 1027.8 ± 3.5 m/s

## ClC=C(Cl)Cl [trichloroethene]
[1]
  speed of sound: 1013.7 ± 3.5 m/s
  mass density: 1451.34 ± 2.5 kg/m3
  Normal boiling temperature: 87.2 ± 0.21 °C

## ClC=C(Cl)Cl [trichloroethene] + BrCCBr
[2]; x2 = 0.0956
  excess molar volume: 6.3e-08 ± 6e-09 m3/mol
[2]; x2 = 0.2077
  excess molar volume: 1.29e-07 ± 6e-09 m3/mol
[2]; x2 = 0.3035
  excess molar volume: 1.74e-07 ± 6e-09 m3/mol
[2]; x2 = 0.4561
  excess molar volume: 2.09e-07 ± 6e-09 m3/mol
[2]; x2 = 0.5499
  excess molar volume: 2.08e-07 ± 6e-09 m3/mol
[2]; x2 = 0.7069
  excess molar volume: 1.64e-07 ± 6e-09 m3/mol
[2]; x2 = 0.7903
  excess molar volume: 1.25e-07 ± 6e-09 m3/mol
[2]; x2 = 0.8924
  excess molar volume: 6.4e-08 ± 6e-09 m3/mol
[3]; φ2 = 0
  speed of sound: 1013.7 ± 3.5 m/s
[3]; φ2 = 0.0922
  speed of sound: 1000.5 ± 3.4 m/s
[3]; φ2 = 0.2012
  speed of sound: 990.5 ± 3.4 m/s
[3]; φ2 = 0.2951
  speed of sound: 982.5 ± 3.4 m/s
[3]; φ2 = 0.4462
  speed of sound: 973.5 ± 3.4 m/s
[3]; φ2 = 0.54
  speed of sound: 971.2 ± 3.3 m/s
[3]; φ2 = 0.6986
  speed of sound: 968.2 ± 3.3 m/s
[3]; φ2 = 0.7836
  speed of sound: 972.4 ± 3.4 m/s
[3]; φ2 = 0.8885
  speed of sound: 975.9 ± 3.4 m/s
